The assay deals with endogenous cellular BACE2 in the Ins1e rat cell line (Rattus norvegicus (Rat), UniProt Q6IE75). The assay is described as follows: Assay for BACE inhibition by measuring cellular TMEM27 cleavage (ELISA of shed hTMEM27 from INS-TMEM27 cells). The settings on record: assay a): cellular TMEM27 cleavage, INS-TMEM27 cells (superscript a). The class given is cell-based. An excerpt:
a) Assay for BACE Inhibition by Measuring Cellular TMEM27 Cleavage:
The assay uses the principle of inhibition of human TMEM27 cleavage by endogenous cellular BACE2 in the Ins1e rat cell line and shedding from the cell surface into the culture medium, followed by detection in an ELISA assay. Inhibition of BACE2 prevents the cleavage and shedding in a dose-dependent manner.
The stable cell line “INS-TMEM27” represents an INS1e-derived cell line with inducible expression (using the TetOn system) of full-length hTMEM27 in a doxycycline-dependent manner. The cells are cultured throughout the experiment in RPMI1640+Glutamax (Invitrogen) Penicillin/Streptomycin, 10% Fetal bovine serum, […], […], 100 micrograms/ml G418 and 100 microgram/ml hygromycin and are grown inadherent culture at 37° C. in a standard CO2 cell culture incubator.
INS-TMEM27 cells are seeded in 96-well plates. After 2 days in culture, BACE2 inhibitor is added in a range of concentrations as required by the assay and after a further two hours, doxycycline is added to a final concentration of 500 ng/ml. The cells are incubated for a further 46 hours and the supernatant harvested for detection of shed TMEM27.
An ELISA assay (using a pair of mouse anti-human-TMEM27 antibodies, raised against the extracellular domain of TMEM27) is used for detection of TMEM27 in the culture medium. An EC50 for BACE2 inhibition is calculated using the ELISA readout for each inhibitor concentration with standard curve-fitting software such as XLFit for the Excel spreadsheet program.
In general terms: In an ELISA, binding on a coated surface is turned into a signal by an enzyme label.

As a reminder, the IC50 is the point on the concentration scale where inhibition reaches its midpoint. A lower IC50 goes with greater potency in that assay.

Chain of endogenous cellular BACE2 in the Ins1e rat cell line (Q6IE75 63-514): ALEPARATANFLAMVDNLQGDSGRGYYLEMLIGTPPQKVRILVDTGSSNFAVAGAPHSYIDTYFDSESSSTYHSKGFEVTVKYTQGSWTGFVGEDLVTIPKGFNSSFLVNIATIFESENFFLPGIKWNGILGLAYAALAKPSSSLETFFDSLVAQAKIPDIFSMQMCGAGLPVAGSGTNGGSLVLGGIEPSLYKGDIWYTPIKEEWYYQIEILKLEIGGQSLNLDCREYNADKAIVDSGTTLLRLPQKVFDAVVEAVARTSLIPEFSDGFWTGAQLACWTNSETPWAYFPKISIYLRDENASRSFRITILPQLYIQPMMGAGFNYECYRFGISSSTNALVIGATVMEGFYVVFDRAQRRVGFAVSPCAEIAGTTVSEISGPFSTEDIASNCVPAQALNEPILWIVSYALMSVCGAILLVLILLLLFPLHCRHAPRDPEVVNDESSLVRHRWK

Consider `CN1C(=O)C(C)(C)[C@@](C)(c2cc(NC3COc4ccccc43)ccc2F)N=C1N` (stereo partly drawn) [Example 51, (6S)-2-amino-6-(5-(2,3-dihydrobenzofuran-3-ylamino)-2-fluorophenyl)-3,5,5,6-tetramethyl-5,6-dihydropyrimidin-4(3H)-one], for which the IC50 amounted to 73 nM.
With `CN1C(=O)C(C)(C)[C@@](C)(c2cc(NC(=O)C(F)(F)C(F)(F)F)ccc2F)N=C1N` [Example 6, N-[3-((S)-2-Amino-1,4,5,5-tetramethyl-6-oxo-1,4,5,6-tetrahydro-pyrimidin-4-yl)-4-fluoro-phenyl]-2,2,3,3,3-pentafluoro-propionamide] the figure was 350 nM; with `COc1ccc(Nc2ccc(F)c([C@@]3(C)N=C(N)N(C)C(=O)C3(C)C)c2)c(OC)c1` [Example 108, (S)-2-Amino-6-(5-(2,4-dimethoxyphenylamino)-2-fluorophenyl)-3,5,5,6-tetramethyl-5,6-dihydropyrimidin-4(3H)-one], 178 nM.
`COc1ccc(C(=O)O)cc1Nc1ccc(F)c([C@@]2(C)N=C(N)N(C)C(=O)C2(C)C)c1` [Example 129, (S)-3-(3-(2-amino-1,4,5,5-tetramethyl-6-oxo-1,4,5,6-tetrahydropyrimidin-4-yl)-4-fluorophenylamino)-4-methoxybenzoic acid] returned an IC50 of 3050 nM.
With `CN1C(=O)C(C)(C)[C@@](C)(c2cc(Nc3ccc(F)cc3F)ccc2F)N=C1N` [Example 81, (S)-2-Amino-6-(5-(2,4-difluorophenylamino)-2-fluorophenyl)-3,5,5,6-tetramethyl-5,6-dihydropyrimidin-4(3H)-one] the figure was 223 nM; with `CN1C(=O)C(C)(C)[C@@](C)(c2cc(NC(=O)C3CC3(C)C)ccc2F)N=C1N` (stereo partly drawn) [Example 19, N-(3-((S)-2-Amino-1,4,5,5-tetramethyl-6-oxo-1,4,5,6-tetrahydropyrimidin-4-yl)-4-fluorophenyl)-2,2-dimethylcyclopropanecarboxamide], 74 nM.
In turn, `CN1C(=O)C(C)(C)[C@@](C)(c2cc(Nc3ccc(F)cc3)ccc2F)N=C1N` [Example 89, (S)-2-Amino-6-[2-fluoro-5-(4-fluoro-phenylamino)-phenyl]-3,5,5,6-tetramethyl-5,6-dihydro-3H-pyrimidin-4-one] yielded an IC50 of 1140 nM.
With `CCNc1ccc(F)c([C@@]2(C)N=C(N)N(C)C(=O)C2(C)C)c1` [Example 91, (S)-2-Amino-6-(5-ethylamino-2-fluoro-phenyl)-3,5,5,6-tetramethyl-5,6-dihydro-3H-pyrimidin-4-one] the figure was 322 nM; with `CN1C(=O)C(C)(C)[C@@](C)(c2cc(NC3CCN(Cc4ccccc4)C3)ccc2F)N=C1N` (stereo partly drawn) [Example 32, (6S)-2-Amino-6-(5-(1-benzylpyrrolidin-3-ylamino)-2-fluorophenyl)-3,5,5,6-tetramethyl-5,6-dihydropyrimidin-4(3H)-one], 32 nM.
Take `COc1cc(F)c(F)cc1Nc1ccc(F)c([C@@]2(C)N=C(N)N(C)C(=O)C2(C)C)c1` [Example 102, (S)-2-Amino-6-[5-(4,5-difluoro-2-methoxy-phenylamino)-2-fluoro-phenyl]-3,5,5,6-tetramethyl-5,6-dihydro-3H-pyrimidin-4-one]: the IC50 was 217 nM.
With `CCC1CC(Nc2ccc(F)c([C@@]3(C)N=C(N)N(C)C(=O)C3(C)C)c2)c2ccccc21` (stereo partly drawn) [Example 113, (S)-2-Amino-6-[5-(3-ethyl-indan-1-ylamino)-2-fluoro-phenyl]-3,5,5,6-tetramethyl-5,6-dihydro-3H-pyrimidin-4-one] the figure was 36 nM; with `CC(Cc1ccc(F)cc1)Nc1ccc(F)c([C@@]2(C)N=C(N)N(C)C(=O)C2(C)C)c1` (stereo partly drawn) [Example 42, (S)-2-Amino-6-{2-fluoro-5-[2-(4-fluoro-phenyl)-1-methyl-ethylamino]-phenyl}-3,5,5,6-tetramethyl-5,6-dihydro-3H-pyrimidin-4-one], 211 nM; with `CN1C(=O)C(C)(C)[C@@](C)(c2cc(NCC3CC3(F)F)ccc2F)N=C1N` (stereo partly drawn) [Example 58, (S)-2-Amino-6-{5-[(2,2-difluoro-cyclopropylmethyl)-amino]-2-fluoro-phenyl}-3,5,5,6-tetramethyl-5,6-dihydro-3H-pyrimidin-4-one], 10 nM.
With `CN1C(=O)C(C)(C)[C@@](C)(c2cc(Nc3cccnc3)ccc2F)N=C1N` [Example 138, (S)-2-Amino-6-(2-fluoro-5-(pyridin-3-ylamino)phenyl)-3,5,5,6-tetramethyl-5,6-dihydropyrimidin-4(3H)-one] the figure was 500 nM; with `CN1C(=O)C(C)(C)[C@@](C)(c2cc(NC(=O)CC3CCC3)ccc2F)N=C1N` [Example 27, (S)—N-(3-(2-amino-1,4,5,5-tetramethyl-6-oxo-1,4,5,6-tetrahydropyrimidin-4-yl)-4-fluorophenyl)-2-cyclobutylacetamide], 157 nM.
Consider `CN1C(=O)C(C)(C)[C@@](C)(c2cc(Nc3ccccn3)ccc2F)N=C1N` [Example 105, (S)-2-Amino-6-(2-fluoro-5-(pyridin-2-ylamino)phenyl)-3,5,5,6-tetramethyl-5,6-dihydropyrimidin-4(3H)-one], for which the IC50 amounted to 12 nM.
`CCC[C@@]1(c2cccc(NC(=O)C3(C(F)(F)F)CC3)c2)CC(=O)N(C)C(N)=N1` [Example 14, 1-Trifluoromethyl-cyclopropanecarboxylic acid [3-((S)-2-amino-1-methyl-6-oxo-4-propyl-1,4,5,6-tetrahydro-pyrimidin-4-yl)-phenyl]-amide] displayed an IC50 of 120 nM.
With `CN1C(=O)C(C)(C)[C@@](C)(c2cc(NCC3(C)CC3(F)F)ccc2F)N=C1N` (stereo partly drawn) [Example 68, (S)-2-Amino-6-{5-[(2,2-difluoro-1-methyl-cyclopropylmethyl)-amino]-2-fluoro-phenyl}-3,5,5,6-tetramethyl-5,6-dihydro-3H-pyrimidin-4-one] the figure was 3 nM; with `COc1cc(C(F)(F)F)ccc1Nc1ccc(F)c([C@@]2(C)N=C(N)N(C)C(=O)C2(C)C)c1` [Example 94, (S)-2-Amino-6-[2-fluoro-5-(2-methoxy-(4-trifluoromethyl)-phenylamino)-phenyl]-3,5,5,6-tetramethyl-5,6-dihydro-3H-pyrimidin-4-one], 704 nM.
Take `CN1C(=O)C(C)(C)[C@@](C)(c2cc(NC(=O)CC3CC3)ccc2F)N=C1N` [Example 28, (S)—N-(3-(2-amino-1,4,5,5-tetramethyl-6-oxo-1,4,5,6-tetrahydropyrimidin-4-yl)-4-fluorophenyl)-2-cyclopropylacetamide]: the midpoint of inhibition, the IC50, lay at 43 nM.
Turning to `CN1C(=O)C(C)(C)[C@@](C)(c2cc(Nc3ccccc3C#N)ccc2F)N=C1N` [Example 103, (S)-2-(3-(2-Amino-1,4,5,5-tetramethyl-6-oxo-1,4,5,6-tetrahydropyrimidin-4-yl)-4-fluorophenylamino)benzonitrile], half-maximal inhibition (IC50) was put at 1 nM.
In turn, `CN1C(=O)C(C)(C)[C@@](C)(c2cc(NC(=O)C(O)C(F)(F)F)ccc2F)N=C1N` (stereo partly drawn) [Example 8, N-[3-((S)-2-Amino-1,4,5,5-tetramethyl-6-oxo-1,4,5,6-tetrahydro-pyrimidin-4-yl)-4-fluoro-phenyl]-3,3,3-trifluoro-2-hydroxy-propionamide] gave a 50% inhibitory concentration (IC50) of 9 nM.
With `CN1C(=O)C(C)(C)[C@@](C)(c2cc(NC3COc4cc(Cl)ccc43)ccc2F)N=C1N` (stereo partly drawn) [Example 133, (S)-2-Amino-6-[5-(6-chloro-2,3-dihydro-benzofuran-3-ylamino)-2-fluoro-phenyl]-3,5,5,6-tetramethyl-5,6-dihydro-3H-pyrimidin-4-one] the figure was 41 nM.
With `CN1C(=O)C(C)(C)[C@@](C)(c2cc(NCc3cc[nH]n3)ccc2F)N=C1N` [Example 61, (S)-2-Amino-6-{2-fluoro-5-[(1H-pyrazol-3-ylmethyl)-amino]-phenyl}-3,5,5,6-tetramethyl-5,6-dihydro-3H-pyrimidin-4-one] the figure was 59 nM; with `CN1C(=O)C(C)(C)[C@@](C)(c2cc(NC(=O)C(O)(C(F)(F)F)C(F)(F)F)ccc2F)N=C1N` [Example 148, (S)—N-(3-(2-amino-1,4,5,5-tetramethyl-6-oxo-1,4,5,6-tetrahydropyrimidin-4-yl)-4-fluorophenyl)-3,3,3-trifluoro-2-hydroxy-2-(trifluoromethyl)propanamide], 497 nM.
For the compound `CC(Nc1ccc(F)c([C@@]2(C)N=C(N)N(C)C(=O)C2(C)C)c1)C1CC1` (stereo partly drawn) [Example 37, (S)-2-Amino-6-[5-(1-cyclopropyl-ethylamino)-2-fluoro-phenyl]-3,5,5,6-tetramethyl-5,6-dihydro-3H-pyrimidin-4-one], the IC50 amounted to 39 nM.
Consider `CN1C(=O)C(C)(C)[C@@](C)(c2cc(NCC3(C(F)(F)F)CC3)ccc2F)N=C1N` [Example 87, (S)-2-Amino-6-{2-fluoro-5-[(1-trifluoromethyl-cyclopropylmethyl)-amino]-phenyl}-3,5,5,6-tetramethyl-5,6-dihydro-3H-pyrimidin-4-one], for which the IC50 came to 119 nM.
With `CN1C(=O)C(C)(C)[C@@](C)(c2cc(Nc3cc(F)ccc3F)ccc2F)N=C1N` [Example 145, (S)-2-Amino-6-[5-(2,5-difluoro-phenylamino)-2-fluoro-phenyl]-3,5,5,6-tetramethyl-5,6-dihydro-3H-pyrimidin-4-one] the figure was 14 nM.

The record behind these values is patent US8815881B2 (Hoffmann-La Roche Inc., priority 2010, dated 2014).
